Reference: patent US20250114486A1, “MARKED FATTY ACID DERIVATIVE, PRECURSOR COMPOUND THEREOF, AND USE THEREOF IN CONTRAST AGENT” (BEIJING NORMAL UNIVERSITY, priority 2022, published 2025)

Assay: In vivo biodistribution of radioactive ^99mTc complexes in female SD rats
Design: species or system female Sprague-Dawley (SD) rats
Settings: for Biodistribution: Large Intestine / Biodistribution: Small Intestine / Biodistribution: Stomach: unit % ID
Description: Female SD rats (180-220 g, n=3) were fasted for 12 h before the experiment, and the purified radioactive 99mTc complexes 78-81 were prepared into physiological saline (containing 10% ethanol) solutions of about 250-350 μCi/mL. 200 μL of the above solution was injected into the tail vein of female SD rats, and the rats were killed by cervical dislocation at five time points, 15, 30, 60, 120 and 240 min after the tail vein injection. The blood, brain, heart, liver, spleen, lung, kidney, muscle, bone, large intestine, small intestine, stomach and tail were collected, weighed and counted, and the count distribution of each tissue and organ was calculated (unit: % ID/g, the unit of large intestine, small intestine and stomach is % ID), and the data are the mean±standard deviation of three mice in each phase. At the same time, 200 μL of the above solution was diluted to 20 mL, which was used as the % ID without deducting the tail count.

## COC(C)(C)C[N+]#[C][99Tc-5]([C]#[N+]CC(C)(C)OC)([C]#[N+]CC(C)(C)OC)([C]#[N+]CC(C)(C)OC)([C]#[N+]CC(C)(C)OC)[C]#[N+]CC(C)(C)OCCCCCSCCCCC(=O)O [^99mTc complex 80]
30 min post-injection
  Biodistribution: Liver: 1.01 ± 0.29 ID %/g
  Biodistribution: Lungs: 0.32 ± 0.04 ID %/g
  Biodistribution: Muscle: 0.22 ± 0.07 ID %/g
  Biodistribution: Spleen: 0.26 ± 0.06 ID %/g
  Heart-to-Blood ratio: 54.80±11.86
  Heart-to-Liver ratio: 1.48 ± 0.45
  Heart-to-Lungs ratio: 4.40 ± 0.64
  absolute myocardial uptake value: 1.42±0.32 % ID/g
  Biodistribution: Large Intestine: 6.69 ± 0.68 % ID
  Biodistribution: Small Intestine: 10.71 ± 1.89 % ID
  Biodistribution: Stomach: 0.53 ± 0.07 % ID
60 min post-injection
  Biodistribution: Blood: 0.013 ± 0.003 ID %/g
  Biodistribution: Bone: 0.064 ± 0.004 ID %/g
  Biodistribution: Brain: 0.011 ± 0.005 ID %/g
  Biodistribution: Heart: 2.06 ± 0.06 ID %/g
  Biodistribution: Kidney: 2.39 ± 0.58 ID %/g
  Biodistribution: Liver: 0.33 ± 0.09 ID %/g
  Biodistribution: Lungs: 0.22 ± 0.03 ID %/g
  Biodistribution: Muscle: 0.48 ± 0.06 ID %/g
  Biodistribution: Spleen: 0.16 ± 0.06 ID %/g
  Heart-to-Blood ratio: 164.01±43.51
  Heart-to-Liver ratio: 6.43±1.85
  Heart-to-Lungs ratio: 9.48±1.39
  absolute myocardial uptake value: 2.06 0.06 % ID/g
  Biodistribution: Large Intestine: 12.36 ± 2.55 % ID
  Biodistribution: Small Intestine: 6.75 ± 1.89 % ID
  Biodistribution: Stomach: 0.56 ± 0.27 % ID
120 min post-injection
  Biodistribution: Blood: 0.009 ± 0.001 ID %/g
  Biodistribution: Bone: 0.07 ± 0.02 ID %/g
  Biodistribution: Brain: 0.010 ± 0.005 ID %/g
  Biodistribution: Heart: 1.73 ± 0.09 ID %/g
  Biodistribution: Kidney: 1.30 ± 0.41 ID %/g
  Biodistribution: Liver: 0.18 ± 0.01 ID %/g
  Biodistribution: Lungs: 0.16 ± 0.01 ID %/g
  Biodistribution: Muscle: 0.34 ± 0.03 ID %/g
  Biodistribution: Spleen: 0.15 ± 0.01 ID %/g
  Heart-to-Blood ratio: 197.36±32.29
  Heart-to-Liver ratio: 9.68±0.76
  Heart-to-Lungs ratio: 11.40±3.06
  absolute myocardial uptake value: 1.73±0.09 % ID/g
  Biodistribution: Large Intestine: 22.13 ± 2.94 % ID
  Biodistribution: Small Intestine: 5.02 ± 0.82 % ID
  Biodistribution: Stomach: 0.55 ± 0.08 % ID
240 min post-injection
  Biodistribution: Blood: 0.007 ± 0.001 ID %/g
  Biodistribution: Bone: 0.043 ± 0.003 ID %/g
  Biodistribution: Brain: 0.007 ± 0.002 ID %/g
  Biodistribution: Heart: 0.93 ± 0.09 ID %/g
  Biodistribution: Kidney: 0.49 ± 0.03 ID %/g
  Biodistribution: Liver: 0.17 ± 0.03 ID %/g
  Biodistribution: Lungs: 0.06 ± 0.01 ID %/g
  Biodistribution: Muscle: 0.22 ± 0.02 ID %/g
  Biodistribution: Spleen: 0.06 ± 0.01 ID %/g
  Heart-to-Blood ratio: 141.90±22.86
  Heart-to-Liver ratio: 5.56±1.30
  Heart-to-Lungs ratio: 15.00±3.18
  absolute myocardial uptake value: 0.93±0.09 % ID/g
  Biodistribution: Large Intestine: 22.41 ± 1.13 % ID
  Biodistribution: Small Intestine: 7.36 ± 0.64 % ID
  Biodistribution: Stomach: 0.20 ± 0.02 % ID
Peak at 60 min post-injection
  absolute myocardial uptake peak value: 2.06±0.06 % ID/g
Within 60-240 min post-injection
  decrease of absolute myocardial uptake value: 54.9%
